The source of these data is US4647572A, “Iodoallyl and iodopropargyl substituted tetrazoles and anti-microbial compositions thereof” (Meiji Seika Kaisha, Ltd., priority 1982, dated 1987).

Converted amounts (≈) assume the structure as drawn. Some results are limits rather than exact numbers.

Common to all, as to type: cell-based
For experiment [1], the system named is Aspergillus fumigatus Saito. Briefly: Antifungal Activity MIC (in medicinal field). The conditions noted are these: read-out: Minimal Inhibitory Concentration (MIC).
For another experiment, the system named is Candida albicans GA-24. The experiment in a line: Antifungal Activity MIC (in medicinal field). The conditions noted are these: GA24, read-out: Minimal Inhibitory Concentration (MIC).
For experiment [2], the system named is Cryptococcus neoformans Cr-1. The experiment in a line: Antifungal Activity MIC (in medicinal field). As to conditions: CR1, read-out: Minimal Inhibitory Concentration (MIC).
Experiment [3] concerns Trichophyton metagrophytes 530324. The experiment in a line: Antifungal Activity MIC (in medicinal field). As to conditions: read-out: Minimal Inhibitory Concentration (MIC).
Experiment [4] deals with Trichophyton interdigitale. Briefly: Antifungal Activity MIC (in medicinal field). The conditions noted are these: read-out: Minimal Inhibitory Concentration (MIC).
The next experiment has as its system Sarcina lutea. The experiment in a line: Antibacterial activity (Paper-disc method). The conditions noted are these: Micrococcus luteus, read-out: Inhibition zone diameter; for zone of inhibition at 250 µg/mL: 250 γ/ml; for zone of inhibition at 500 µg/mL: 500 γ/ml.
Experiment [5] relates to Escherichia coli NIHJ JC-2. The experiment in a line: Antibacterial activity (Paper-disc method). As to conditions: read-out: Inhibition zone diameter; for zone of inhibition at 250 µg/mL: NIHJJC2, 250 γ/ml; for zone of inhibition at 500 µg/mL: NIHJJC2, 500 γ/ml.
The next experiment deals with Bacillus subtilis. The experiment in a line: Antibacterial activity (Paper-disc method). The conditions noted are these: read-out: Inhibition zone diameter; for zone of inhibition at 250 µg/mL: 250 γ/ml; for zone of inhibition at 500 µg/mL: 500 γ/ml.
Experiment [6] relates to Staphylococcus aureus 209P. Briefly: Antibacterial activity (Paper-disc method). The conditions noted are these: read-out: Inhibition zone diameter; for zone of inhibition at 250 µg/mL: 250 γ/ml; for zone of inhibition at 500 µg/mL: 500 γ/ml.

As for `CCCc1nnn(CC(I)=C(I)I)n1` [Compound No. 46, 2-(2',3',3'-triiodoallyl)-5-n-propyltetrazole], the MIC in experiment [1] is 0.39 µg/mL (≈ 0.736 µM); in the experiment on Candida albicans GA-24, 1.56 µg/mL (≈ 2.94 µM); in experiment [2] it was 0.78 µg/mL (≈ 1.47 µM); in [3] it was not above 0.05 µg/mL; in experiment [4], 0.09 µg/mL (≈ 0.17 µM).
The matching figures for `CCCCCCCc1nnnn1CC(I)=C(I)I` [Compound No. 41, 1-(2',3',3'-triiodoallyl)-5-n-heptyltetrazole]: 3.13 µg/mL (≈ 5.34 µM), more than 100 µg/mL, 100 µg/mL (≈ 171 µM), 0.78 µg/mL (≈ 1.33 µM) and not above 0.05 µg/mL.
For `Oc1ccc(-c2nnnn2CC#CI)cc1` [Compound No. 35, 1-(1'-iodopropyn-3'-yl)-5-(p-hydroxyphenyl)tetrazole], in that order: 100 µg/mL (≈ 307 µM), 1.56 µg/mL (≈ 4.78 µM), 0.39 µg/mL (≈ 1.2 µM), 0.1 µg/mL (≈ 0.307 µM) and 0.1 µg/mL (≈ 0.307 µM).
The matching figures for `Clc1cc(Cl)cc(-c2nnn(CC#CI)n2)c1` [Compound No. 30, 2-(1'-Iodopropyn-3'-yl)-5-(3",5"-dichlorophenyl)tetrazole]: 0.19 µg/mL (≈ 0.501 µM), 0.78 µg/mL (≈ 2.06 µM), 0.78 µg/mL (≈ 2.06 µM), 0.09 µg/mL (≈ 0.237 µM) and not above 0.05 µg/mL.
For the compound `CC(C)c1nnnn1CC(I)=C(I)I` [Compound No. 49, 1-(2',3',3'-triiodoallyl)-5-isopropyltetrazole], the MIC was 12.5 µg/mL (≈ 23.6 µM) in experiment [1]; 12.5 µg/mL (≈ 23.6 µM) with Candida albicans GA-24; 6.25 µg/mL (≈ 11.8 µM) in experiment [2]; 6.25 µg/mL (≈ 11.8 µM) in [3]; 1.56 µg/mL (≈ 2.94 µM) in experiment [4].
On to `CC(C)(C)c1nnn(CC(I)=C(I)I)n1` [Compound No. 44, 2-(2',3',3'-triiodoallyl)-5-tert.-butyltetrazole], for which the MIC in experiment [1] is 6.25 µg/mL (≈ 11.5 µM); in the experiment on Candida albicans GA-24, 50 µg/mL (≈ 91.9 µM); in experiment [2], 50 µg/mL (≈ 91.9 µM); in experiment [3], 0.39 µg/mL (≈ 0.717 µM); in experiment [4] it was 0.39 µg/mL (≈ 0.717 µM).
As for `CCCCCc1nnn(CC#CI)n1` [Compound No. 17, 2-(1'-iodopropyn-3'-yl)-5-pentyltetrazole], the MIC was 0.39 µg/mL (≈ 1.28 µM) in experiment [1]; 3.13 µg/mL (≈ 10.3 µM) with Candida albicans GA-24; 3.13 µg/mL (≈ 10.3 µM) in experiment [2]; not above 0.05 µg/mL in [3]; 0.09 µg/mL (≈ 0.296 µM) in experiment [4].
In the case of `O=[N+]([O-])c1ccc(-c2nnn(CC#CI)n2)cc1` [Compound No. 37, 2-(1'-iodopropyn-3'-yl)-5-(p-nitrophenyl)tetrazole], the MIC is 6.25 µg/mL (≈ 17.6 µM) in experiment [1]; 25 µg/mL (≈ 70.4 µM) in the experiment with Candida albicans GA-24; 3.13 µg/mL (≈ 8.81 µM) in experiment [2]; less than 0.04 µg/mL in experiment [3]; 0.39 µg/mL (≈ 1.1 µM) in [4].
The matching figures for `COc1ccc(-c2nnn(CC#CI)n2)cc1` [Compound No. 24, 2-(1'-Iodopropyn-3'-yl)-5-(p-methoxyphenyl)tetrazole]: 1.56 µg/mL (≈ 4.59 µM), 12.5 µg/mL (≈ 36.8 µM), 50 µg/mL (≈ 147 µM), not above 0.05 µg/mL and 0.09 µg/mL (≈ 0.265 µM).
Consider `Clc1ccc(-c2nnn(CC#CI)n2)cc1` [Compound No. 25, 2-(1'-iodopropyn-3'-yl)-5-(p-chlorophenyl)tetrazole], for which the zone of inhibition at 250 µg/mL in the experiment with Sarcina lutea stood at 16 mm; in experiment [5], 13 mm; in the experiment with Bacillus subtilis it was 11.2 mm; in experiment [6], 13.2 mm. The zone of inhibition at 500 µg/mL in the experiment on Sarcina lutea came out at 15 mm; in experiment [5] it was 13 mm; in the experiment with Bacillus subtilis, 11.1 mm; in experiment [6] it was 13.7 mm. Moreover, the MIC in [1] was found to be 0.39 µg/mL (≈ 1.13 µM); in the experiment on Candida albicans GA-24 it was 1.56 µg/mL (≈ 4.53 µM); in [3], 0.09 µg/mL (≈ 0.261 µM); in [4] it was 0.39 µg/mL (≈ 1.13 µM).
On to `Cc1nnnn1CC#CI` [Compound No. 2, 1-(1'-Iodopropyn-3'-yl)-5-methyltetrazole], for which the MIC in experiment [1] turned out to be 0.75 µg/mL (≈ 3.02 µM); in the experiment with Candida albicans GA-24, 1.56 µg/mL (≈ 6.29 µM); in experiment [2] it was 0.78 µg/mL (≈ 3.14 µM); in [3], 0.78 µg/mL (≈ 3.14 µM); in experiment [4] it was 0.78 µg/mL (≈ 3.14 µM).
Turning to `CCCCCCCc1nnn(CC(I)=C(I)I)n1` [Compound No. 40, 2-(2',3',3'-triiodoallyl)-5-n-heptyltetrazole], the MIC stood at 6.25 µg/mL (≈ 10.7 µM) in experiment [1]; 6.25 µg/mL (≈ 10.7 µM) in the experiment with Candida albicans GA-24; 6.25 µg/mL (≈ 10.7 µM) in experiment [2]; 0.78 µg/mL (≈ 1.33 µM) in experiment [3]; 0.78 µg/mL (≈ 1.33 µM) in [4].
On to `CCCc1nnnn1CC(I)=C(I)I` [Compound No. 47, 1-(2',3',3'-triiodoallyl)-5-n-propyltetrazole], for which the MIC in experiment [1] is 0.78 µg/mL (≈ 1.47 µM); in the experiment on Candida albicans GA-24 it was 6.25 µg/mL (≈ 11.8 µM); in experiment [2], 6.25 µg/mL (≈ 11.8 µM); in [3] it was not above 0.05 µg/mL; in experiment [4], 0.09 µg/mL (≈ 0.17 µM).
Consider `Clc1ccc(-c2nnnn2CC#CI)cc1` [Compound No. 26, 1-(1'-Iodopropyn-3'-yl)-5-(p-chlorophenyl)tetrazole], for which the MIC in [1] was 0.78 µg/mL (≈ 2.26 µM); in the experiment on Candida albicans GA-24, 0.78 µg/mL (≈ 2.26 µM); in experiment [2], 0.78 µg/mL (≈ 2.26 µM); in experiment [3] it was less than 0.04 µg/mL; in [4], 0.19 µg/mL (≈ 0.551 µM).
Consider `CCCCCc1nnnn1CC(I)=C(I)I` [Compound No. 43, 1-(2',3',3'-triiodoallyl)-5-n-pentyltetrazole], for which the MIC was 0.39 µg/mL (≈ 0.699 µM) in experiment [1]; 12.5 µg/mL (≈ 22.4 µM) with Candida albicans GA-24; 50 µg/mL (≈ 89.6 µM) in experiment [2]; 0.09 µg/mL (≈ 0.161 µM) in experiment [3]; not above 0.05 µg/mL in [4].
The matching figures for `CCCCCc1nnn(CC(I)=C(I)I)n1` [Compound No. 42, 2-(2',3',3'-triiodoallyl)-5-n-pentyltetrazole]: 0.78 µg/mL (≈ 1.4 µM), 3.13 µg/mL (≈ 5.61 µM), 0.78 µg/mL (≈ 1.4 µM), 0.09 µg/mL (≈ 0.161 µM) and 0.19 µg/mL (≈ 0.341 µM).
Regarding `Cc1ccc(-c2nnn(CC#CI)n2)cc1` [Compound No. 31, 2-(1'-Iodopropyn-3'-yl)-5-(p-methylphenyl)tetrazole], the zone of inhibition at 250 µg/mL in the experiment on Sarcina lutea is 12 mm; in [5], 11.4 mm; with Bacillus subtilis, 9.6 mm; in experiment [6], 11.3 mm. The zone of inhibition at 500 µg/mL was found to be 12 mm with Sarcina lutea, 11.6 mm in experiment [5], 9.6 mm in the experiment on Bacillus subtilis and 11.4 mm in experiment [6]. In addition, the MIC in experiment [1] turned out to be 1.56 µg/mL (≈ 4.81 µM); with Candida albicans GA-24, 0.78 µg/mL (≈ 2.41 µM); in [2] it was 1.56 µg/mL (≈ 4.81 µM); in experiment [3] it was 0.19 µg/mL (≈ 0.586 µM); in [4], 0.39 µg/mL (≈ 1.2 µM).
With `Cc1nnn(CC#CI)n1` [Compound No. 1, 2-(1'-iodopropyn-3'-yl)-5-methyltetrazole], the MIC in experiment [1] was found to be 6.25 µg/mL (≈ 25.2 µM); with Candida albicans GA-24, 6.25 µg/mL (≈ 25.2 µM); in experiment [2] it was 3.12 µg/mL (≈ 12.6 µM); in experiment [3], 3.12 µg/mL (≈ 12.6 µM); in [4], 6.25 µg/mL (≈ 25.2 µM).
